Laboratory results as given in the supplement of paper PMC10307832.

Key:
Experiment in all cases: relative viability (nuclei count vs DMSO), 5 days (fraction); higher = more cells survive
[1] = compound: CC(C)N(CCCNC(=O)Nc1ccc(C(C)(C)C)cc1)C[C@H]1O[C@@H](n2ccc3c(N)ncnc32)[C@H](O)[C@@H]1O + COc1cc2c(Oc3ccc(NC(=O)C4(C(=O)Nc5ccc(F)cc5)CC4)cc3F)ccnc2cc1OCCCN1CCOCC1 [Foretinib] (partner 0.25 µM)
Procedure, shortened: (§1)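 Relative viability is defined as nuclei in treated wells over nuclei in vehicle wells. Duplicate plates were run and medians reported. Lung cancer cell lines in 1536-well plates were dosed by pin tool one day after seeding, with one drug or with a fixed anchor-drug dose plus five library-drug doses (not always all listed) in √10 steps, and nuclei were counted after 5 days.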

[2] = compound: CC(C)N(CCCNC(=O)Nc1ccc(C(C)(C)C)cc1)C[C@H]1O[C@@H](n2ccc3c(N)ncnc32)[C@H](O)[C@@H]1O + C[C@@H](Oc1cc(-c2cnn(C3CCNCC3)c2)cnc1N)c1c(Cl)ccc(F)c1Cl [Crizotinib] (partner 1 µM)
Procedure, shortened: as §1

Shikonin + Vorinostat = compound: CC(C)=CC[C@@H](O)C1=CC(=O)c2c(O)ccc(O)c2C1=O [Shikonin] + O=C(CCCCCCC(=O)Nc1ccccc1)NO [Vorinostat] (partner 1 µM)
Procedure, shortened: as §1

Shikonin + AZD7762 = compound: CC(C)=CC[C@@H](O)C1=CC(=O)c2c(O)ccc(O)c2C1=O [Shikonin] + NC(=O)Nc1cc(-c2cccc(F)c2)sc1C(=O)N[C@H]1CCCNC1 [AZD7762] (partner 0.2 µM)
Procedure, shortened: as §1

Cell Line	relative viability ([1]; first compound 0.08 µM)	relative viability ([1]; first compound 0.253 µM)	relative viability ([1]; first compound 0.8 µM)	relative viability ([1]; first compound 2.53 µM)	relative viability ([1]; first compound 8 µM)	relative viability ([2]; first compound 0.08 µM)	relative viability ([2]; first compound 0.253 µM)	relative viability ([2]; first compound 0.8 µM)	relative viability ([2]; first compound 2.53 µM)	relative viability ([2]; first compound 8 µM)	relative viability (Shikonin + Vorinostat; first compound 0.01 µM)	relative viability (Shikonin + Vorinostat; first compound 0.1 µM)	relative viability (Shikonin + Vorinostat; first compound 0.3162 µM)	relative viability (Shikonin + Vorinostat; first compound 1 µM)	relative viability (Shikonin + AZD7762; first compound 0.01 µM)	relative viability (Shikonin + AZD7762; first compound 0.1 µM)	relative viability (Shikonin + AZD7762; first compound 0.3162 µM)	relative viability (Shikonin + AZD7762; first compound 1 µM)
NCI-H1666	0.976	0.949	1.03	0.938	0.92	1.02	0.983	0.953	1.02	0.76	1.07	0.96	0.966	1.12	0.776	0.9	1	0.887
NCI-H1734	0.825	1.01	0.918	0.796	0.804	0.644	0.656	0.728	0.649	0.605	0.732	0.818	0.765	0.842	0.557	0.552	0.595	0.55
NCI-H1755	0.92	0.909	0.925	0.857	0.868	0.841	0.9	0.889	0.832	0.73	0.637	0.807	0.888	0.665	0.384	0.422	0.373	0.427
NCI-H1915	1.02	1.07	1.06	1	1.03	0.937	0.879	0.768	0.863	0.793	0.511	0.612	0.576	0.479	0.695	0.752	0.728	0.729
NCI-H1944	0.811	0.88	0.958	0.919	0.882	1.09	1.09	1.14	1.13	1.1	0.521	0.521	0.673	0.55	0.454	0.558	0.763	0.561
NCI-H1975	0.853	0.916	0.871	0.707	0.765	0.895	0.867	0.879	0.806	0.839	0.687	0.785	0.801	0.64	0.746	0.683	0.808	0.8
NCI-H1993	0.755			0.796	0.784	0.767	0.935	0.877	0.841	0.888	0.72	0.773	1.02	0.806	0.524	0.667	0.632	0.906
NCI-H2085	0.957	1.04	1.1	0.928	1.02	0.764	0.884	0.99	0.836	0.785	0.78	0.917	0.775	0.824	1.02	1.06	0.957	1.05
NCI-H2087	1.1	1.32	1.22	1.14	1.22	0.981	1.04	1.16	0.945	0.795	0.624	0.742	0.696	0.689	1.38	1.12	1.35	1.23
NCI-H2126	1.18	1.04	1.16	1.13	1.2	1.01	0.986	1.06	0.992	0.959	0.806	0.757	0.841	0.819	1.03	1.01	1.11	1.08
NCI-H2170	0.967	0.987	0.995	0.992	0.977	1.12	1.18	1.22	1.19	1.28	0.856	0.89	0.999	0.816	0.912	0.737	0.975	0.905
NCI-H2347	1.1	0.778	0.865	0.721	0.993	0.752	0.497	0.582	0.709	0.738	0.567	0.529	0.6	0.577	0.77	0.947	0.829	0.712
NCI-H2405	1.02	1.07	1.04	1.12	1.03	0.875	0.822	0.782	0.865	0.856	1.11	1.12	1.03	1.11	0.794	0.986	0.716	0.77
NCI-H3122	0.887	0.951	0.979	0.922	0.887	0.349	0.299	0.285	0.3	0.277	1.07	0.986	1.29	0.944	0.973	1.07	1.05	0.959
PC-3 [JPC-3]	1.05	1.15	0.96	1.05	0.936	0.991	0.994	0.885	0.977	0.917	0.845	0.792	0.781	1.3	0.825	0.846	0.755	1
PC-14	0.912	0.944	0.896	0.95	0.792	0.907	0.881	0.97	0.943	0.723	0.807	0.833	0.77	0.484	0.381	0.274	0.438	0.576
RERF-LC-KJ	0.906	0.814	0.888	0.794	0.79	0.821	0.85	0.845	0.789	0.779	0.709	0.836	0.718	0.757	1.04	0.788	1.26	1.02
